Measurements: publication PMC10914731, “Homo-BacPROTAC-induced degradation of ClpC1 as a strategy against drug-resistant mycobacteria” (Nature Communications, 2024)
≈ marks a conversion by molar mass, not a printed value. Where “and” joins values, the source holds several entries; their conditions need not be identical. Equal entries are not always repeated. Where two headings read alike, the source gives them in different places. Where a SMILES comes first, the peptide text is derived from it. [ ]: non-standard residue; d: D form. NMeLeu(5-OH,4R) = CN[C@@H](C[C@@H](C)CO)C(=O)O; Phe(βR-OMe) = CO[C@H](c1ccccc1)[C@H](N)C(=O)O; Trp(1-Me) = Cn1cc(C[C@H](N)C(=O)O)c2ccccc21; NMeL = CN[C@@H](CC(C)C)C(=O)O; Pra = C#CC[C@H](N)C(=O)O

Experiments:
[1] = test system: Mtb (moxR) FNDR-M1; assay: microbe, parasite or virus in culture; assay type: cell-based
[2] = test system: Acinetobacter baumannii; assay: MIC ESKAPES panel, Acinetobacter baumannii; assay type: cell-based
Protocol: (§1) Minimum inhibitory concentration (MIC) against ESKAPES panel of Gram positive and Gram negative pathogens (Enterococcus faecium, Staphylococcus aureus, Klebsiella pneumoniae, Acinetobacter baumannii, Pseudomonas aeruginosa, Enterobacter cloacae and Salmonella typhimurium [ESKAPES panel]) were determined at the FNDR by the standard broth dilution method [CLSI, M100]. […] Mueller Hinton broth (MHB) medium was used to grow ESKAPES panel strains. The individual cultures were added as 200 μL (inoculum of 3–7 × 10^5 cfu/ml) to the respective assay plates in each well to all columns, except the media control (200 μL of medium). […] The assay plates were incubated at 37 °C, and the results were noted on the 2nd day as turbidometric readout. The clear wells indicated inhibition of growth, while the turbid wells indicated uninhibited growth.

[3] = test system: Enterobacter cloacae; assay: MIC ESKAPES panel, Enterobacter cloacae; assay type: cell-based
Protocol: as §1

[4] = test system: Salmonella typhimurium; assay: MIC ESKAPES panel, Salmonella typhimurium; assay type: cell-based
Protocol: as §1

[5] = in vitro; settings: human; for Papp A→B: apical to basolateral; for Papp B→A: basolateral to apical
Summary of the method: (§2)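 Permeability across Caco-2 monolayers was measured in both directions, apical-to-basolateral and basolateral-to-apical, in 10^-6 cm s-1. Efflux ratio = P(B−A)/P(A−B). Intrinsic permeability is the mean of P(A−B) and P(B−A).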

[6] = test system: Caco-2 monolayers; assay: in vitro
Summary of the method: as §2

[7] = assay type: in vitro ADME, Rat
[8] = assay type: in vitro ADME, Human
[9] = in vivo; assay type: in vivo, BALB/cAnNCrl mice; settings: for Plasma concentration 0.5 h / Plasma concentration 1 h / Plasma concentration 2 h / Plasma concentration 4 h / Plasma concentration 6 h / Plasma concentration 24 h / Plasma concentration […]: BLOQ <1.00 nmol/L
Protocol: The in-life experimental procedures were conducted in strict compliance with German and European animal welfare legislation in an AAALAC-accredited facility. Male BALB/cAnNCrl mice (Charles River Laboratories Research Models and Services, 97633 Sulzfeld, Germany) were used. Animals were 9 weeks old at dosing with a body weight of 21.6–24.3 g. Animals were delivered free of pathogens according to FELASA recommendations with a health certificate provided by the breeder. Upon receipt, the state of health and sex was checked. Animals acclimatized for at least 5 days before the commencement of the in-life phase. During acclimation, animals were group-housed in individually ventilated cages, on birch wood granulate bedding with species-specific enrichment (nesting material, mouse igloo, gnawing wood). During experimental conduct, animals were housed in conventional cages with elevated grid floors. Grid floor was used to avoid contamination with test item material excreted via urine and feces and subsequent reuptake during fur grooming. No bedding and enrichment were provided except a cage divider, which can be used as a shelter. Animals always had unlimited access to food and water and received a pelleted, total pathogen-free maintenance diet and tap drinking water, sterilized by filter.
On the day before dosing, test item(s) were suspended in kleptose (20% in WFI) under continuous stirring (3.0 mg/ml). Following 2 min vortexing and 1 h stirring, the formulation was sonicated at 60 °C for 30 min and stirred at ambient temperature overnight. Before dosing, the formulation was vortexed for 2 min followed by ultraturrax treatment for 2 min.
Male BALB/cAnNCrl mice (n = 3 per test item and administration route) received a bolus dose of the formulated test item(s) (1 mg/kg iv, 30 mg/kg po) at t = 0 h, and whole blood samples were collected subsequently (35 µl at 0.1 (iv) / 0.25 (po), 0.5, 1, 2, 4, 6 h; 600 µl at sacrifice after 24 h). Animals were euthanized by exsanguination in deep isoflurane anesthesia. Whole blood samples were immediately stored on ice at about 4 °C. Plasma was separated by centrifugation at approximately 10,000 × g for 5 m at +4 °C. Centrifugation of each blood sample was started within 10 m after collection. A single aliquot of at least 15 µL of plasma was prepared and immediately stored at −20 ± 5 °C.
Sample proteins were precipitated with ACN (1 + 12, v/v) containing internal standard, and supernatants analyzed by quantitative UPLC-MS/MS: Phenomenex Luna Omega C18, 2.1 × 50 mm, 1.6 µm, 40 °C, gradient between 10% - 90% ACN with 0.1% formic acid. LogD determination: Lipophilicity of the test items, expressed as chromLogD7.5, was assessed by measuring their chromatographic retention times on C18-material. The chromatographic retention versus logD7.5 values of a series of thirteen n-alkan-2-ones (2-butanone – 2-hexadecanone) served as lipophilicity calibration.

[10] = M. tuberculosis FNDR-M1, single well replicates
[11] = Mycobacterium tuberculosis, M. tuberculosis FNDR-M1, single well replicates
[12] = Mycobacterium tuberculosis, Mtb (moxR) FNDR-M1, mean ± SD, n = 3 well replicates
[13] = Gram negative, n = 3 well replicates, read-out: MIC Acinetobacter baumanii
[14] = Gram-Negative Bacteria, replicates 1-3, read-out: MIC Acinetobacter baumannii
[15] = Enterobacter cloacae, Gram negative, n = 3 well replicates
[16] = Enterobacter cloacae, Gram-Negative Bacteria, replicates 1-3
[17] = Salmonella enterica, TYPHIMURIUM, Gram negative, n = 3 well replicates
[18] = Salmonella enterica, TYPHIMURIUM, Gram-Negative Bacteria, replicates 1-3
[19] = Caco-2, Caco-2 permeability P (A-B)
[20] = mean value of P(A−B) and P(B−A)
[21] = oral gavage 30 mg/kg, mice, Mean
[22] = oral gavage, individual animals 1-3
[23] = Gram-Negative Bacteria, replicates 1-3, listed as 8 (UdSBI-0545)
[24] = Gram-Negative Bacteria, replicates 1-3
[25] = Gram-Negative Bacteria, replicates 1-3, listed as 12 (UdSBI-4377)
[26] = male, BALB/cAnNCrl, mouse, in vivo, po

| SMILES | MIC [1, 10] [µM] | MIC [1, 11] [µM] | MIC [1, 12] [µM] | MIC [2, 13] [µM] | MIC [2, 14] | MIC [3, 15] [µM] | MIC [3, 16] | MIC [4, 17] [µM] | MIC [4, 18] | Papp A→B [5, 19] [×10⁻⁶ cm/s] | Caco-2 Int. Perm [6, 20] | Hepatocyte Rat ([7]; clearance in hepatocytes) [%Qh] | Hepatocyte Human ([8]; clearance in hepatocytes) [%Qh] | Plasma concentration 0.5 h [9, 21] | Plasma concentration 1 h [9, 21] | Plasma concentration 2 h [9, 21] | Plasma concentration 4 h [9, 21] | Plasma concentration 6 h [9, 21] | Plasma concentration 24 h [9, 21] | Plasma concentration […] [9, 21] | also measured |
| --- | --- | --- | --- | --- | --- | --- | --- | --- | --- | --- | --- | --- | --- | --- | --- | --- | --- | --- | --- | --- | --- |
| COc1c(N2C[C@@H]3CCCN[C@@H]3C2)c(F)cc2c(=O)c(C(=O)O)cn(C3CC3)c12 [Moxifloxacin, reference compound] | 19.93 (≈ 8 µg/mL) | 19.9 (≈ 8 µg/mL) | 19.9 (≈ 7.99 µg/mL) | 0.3 (≈ 0.12 µg/mL) | 0.31 µM and 0.125 µg/mL | 0.3 | 0.31 µM and 0.125 µg/mL | 0.6 | 0.62 µM and 0.25 µg/mL | – | – | – | – | – | – | – | – | – | – | – | – |
| CO[C@H](c1ccccc1)[C@@H]1NC(=O)[C@H](C)NC(=O)[C@H](C[C@@H](C)CO)N(C)C(=O)[C@H](Cc2cn(Cc3cn(CCOCCn4cc(Cn5cc(C[C@@H]6NC(=O)[C@H](C(C)C)NC(=O)[C@H](CC(C)C)N(C)C(=O)[C@H](C(C)C)NC(=O)[C@H]([C@H](OC)c7ccccc7)NC(=O)[C@H](C)NC(=O)[C@H](C[C@@H](C)CO)N(C)C6=O)c6ccccc65)nn4)nn3)c3ccccc23)NC(=O)[C@H](C(C)C)NC(=O)[C@H](CC(C)C)N(C)C(=O)[C@H](C(C)C)NC1=O [Compound 6] | – | – | – | – | – | – | – | – | – | < 1.7 | 2.1 10-6 cm s-1 | 6 | 12 | BLOQ | BLOQ | BLOQ | BLOQ | BLOQ | BLOQ | BLOQ | Papp A→B ([5]; Caco-2, CACO permeability PEAB): < 2.6 ×10⁻⁶ cm/s; Papp B→A ([5]; Caco-2, Caco-2 permeability P (B-A)): 2.4 ×10⁻⁶ cm/s; Plasma concentration 0.5 h [9, 22]: BLOQ; Plasma concentration 1 h [9, 22]: BLOQ; Plasma concentration 2 h [9, 22]: BLOQ; Plasma concentration 4 h [9, 22]: BLOQ; Plasma concentration 6 h [9, 22]: BLOQ; Plasma concentration 24 h [9, 22]: BLOQ; Plasma concentration […] [9, 22]: BLOQ |
| COC(c1ccccc1)C1NC(=O)C(C)NC(=O)C(CC(C)CO)N(C)C(=O)C(Cc2cn(Cc3cn(CCOCCOCCOCCOCCn4cc(Cn5cc(CC6NC(=O)C(C(C)C)NC(=O)C(CC(C)C)N(C)C(=O)C(C(C)C)NC(=O)C(C(OC)c7ccccc7)NC(=O)C(C)NC(=O)C(CC(C)CO)N(C)C6=O)c6ccccc65)nn4)nn3)c3ccccc23)NC(=O)C(C(C)C)NC(=O)C(CC(C)C)N(C)C(=O)C(C(C)C)NC1=O (stereo not drawn) [Compound 8] | 0.195 (≈ 0.423 µg/mL) | 0.195 (≈ 0.423 µg/mL) | 0.2 (≈ 0.434 µg/mL) | > 50 | > 50 µM and > 109 µg/mL | > 50 | > 109 µg/mL | > 50 | > 109 µg/mL | – | 0.4 10-6 cm s-1 | 6 | 12 | 19.4 nM | 18.1 nM | 26.0 nM | 31.8 nM | 32.5 nM | 96.7 nM | 25.7 nM | CACO permeability PEAB ([6]; apical to basolateral): <0.0000027 cm/sec; Caco-2 permeability P (A-B) ([6]; apical to basolateral): < 0.6 10-6 cm s-1; CACO permeability PEBA ([6]; basolateral to apical): <0.000001 cm/sec; Caco-2 permeability P (B-A) ([6]; basolateral to apical): < 0.3 10-6 cm s-1; MIC [3, 23]: >50 µM; MIC [4, 23]: >50 µM; Plasma concentration 24 h ([9]; oral gavage, individual animals 1-3, listed as 8 (UdSBI-0545)): 101 nM and 92.4 nM; Cmax/Dose ([9]; oral gavage, mice, Mean): 10.4 nM/nmol/kg; tmax ([9]; oral gavage, mice, Mean): 24.0 h; AUC0-t/Dose ([9]; oral gavage, mice, Mean (compound 6: maximum potential value with 1 nM for each time point)): 165 h*nM/nmol/kg |
| C#CC[C@@H]1NC(=O)[C@H](CC(C)C)N(C)C(=O)[C@H](C(C)C)NC(=O)[C@H]([C@H](OC)c2ccccc2)NC(=O)[C@H](C)NC(=O)[C@H](C[C@@H](C)CO)N(C)C(=O)[C@H](Cc2cn(C)c3ccccc23)NC1=O [Compound 10] (cyclo(A[Phe(βR-OMe)]V[NMeL][Pra][Trp(1-Me)][NMeLeu(5-OH,4R)])) | 1.56 (≈ 1.42 µg/mL) | 1.56 (≈ 1.42 µg/mL) | 1.6 (≈ 1.46 µg/mL) | > 50 | > 50 µM and > 45.6 µg/mL | > 50 | > 45.6 µg/mL | > 50 | > 45.6 µg/mL | < 0.1 | 7.1 10-6 cm s-1 | 70 | 12 | – | – | – | – | – | – | – | Papp B→A ([5]; Caco-2, CACO permeability PEBA): 19 ×10⁻⁶ cm/s; CACO permeability PEBA ([6]; basolateral to apical): 0.000014 cm/s; Hepatocyte Stability Rat QH ([7]; Rat): 69.830%; MIC [3, 24]: >50 µM; MIC [4, 24]: >50 µM |
| COC(c1ccccc1)C1NC(=O)C(C)NC(=O)C(CC(C)CO)N(C)C(=O)C(Cc2cn(C)c3ccccc23)NC(=O)C(Cc2cn(CCCCCn3cc(CC4NC(=O)C(CC(C)C)N(C)C(=O)C(C(C)C)NC(=O)C(C(OC)c5ccccc5)NC(=O)C(C)NC(=O)C(CC(C)CO)N(C)C(=O)C(Cc5cn(C)c6ccccc56)NC4=O)nn3)nn2)NC(=O)C(CC(C)C)N(C)C(=O)C(C(C)C)NC1=O (stereo not drawn) [Compound 12] | 0.195 (≈ 0.386 µg/mL) | 0.195 (≈ 0.386 µg/mL) | 0.2 (≈ 0.396 µg/mL) | > 50 | > 50 µM and > 99 µg/mL | > 50 | > 99 µg/mL | > 50 | > 99 µg/mL | – | – | – | – | – | – | – | – | – | – | – | CACO permeability PEAB ([6]; human, Caco-2): 0.00000073 cm/s; CACO permeability PEBA ([6]; human, Caco-2): 0.00000025 cm/s; Caco-2 Efflux ratio ([6]; human, Caco-2): 0.3; Caco-2 Int. Perm ([6]; human, Caco-2): 0.5; Caco-2 permeability P (A-B) ([6]; human, Caco-2): 0.7; Caco-2 permeability P (B-A) ([6]; human, Caco-2): 0.2; Hepatocyte Rat ([7]; rat, pH 7.4): 6 %Qh; Hepatocyte Human ([8]; human, pH 7.4): 12 %Qh; MIC [3, 25]: >50 µM; MIC [4, 25]: >50 µM; AUC0-inf/Dose [9, 26]: 62.6 h*nM/nmol/kg; AUC0-t/Dose [9, 26]: 45.5 h*nM/nmol/kg; BA [9, 26]: 0.7%; Cmax/Dose [9, 26]: 2.56 nM/nmol/kg |
